Toxic doses and inconclusive results are not listed. Rule as the data show it: active = T/C of 150% or more; inactive = T/C below 125%.
System: L1210 leukemia ip in BDF1 mice, survival T/C
Experiment: NCI In Vivo Anticancer Drug Screen. Data for tumor model L1210 Leukemia (intraperitoneal) in B6D2F1 (BDF1) mice
Details: endpoint: mean survival time, higher = longer survival
Outline: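 Each compound was tested against a transplantable tumor grown in mice. The endpoint was survival, with treated animals benchmarked against vehicle controls as a simple ratio.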

[1] = dose: 100.0 mg/kg/injection, schedule: Q04DX003 (ip), vehicle: saline with Tween-80
[2] = dose: 100.0 mg/kg/injection, schedule: Q04DX002 (ip), vehicle: saline
[3] = dose: 200.0 mg/kg/injection, schedule: Q04DX002 (ip), vehicle: saline
[4] = dose: 400.0 mg/kg/injection, schedule: Q04DX002 (ip), vehicle: saline
[5] = dose: 100.0 mg/kg/injection, schedule: Q01DX001 (ip), vehicle: saline with Tween-80
[6] = dose: 200.0 mg/kg/injection, schedule: Q01DX001 (ip), vehicle: saline with Tween-80
[7] = dose: 100.0 mg/kg/injection, schedule: Q04DX003 (ip), vehicle: Klucel (hydroxypropylcellulose) (HPC)
[8] = dose: 200.0 mg/kg/injection, schedule: Q04DX003 (ip), vehicle: Klucel (hydroxypropylcellulose) (HPC)
[9] = dose: 400.0 mg/kg/injection, schedule: Q04DX003 (ip), vehicle: Klucel (hydroxypropylcellulose) (HPC)
[10] = dose: 400.0 mg/kg/injection, schedule: Q01DX001 (ip), vehicle: saline with Tween-80
[11] = dose: 100.0 mg/kg/injection, schedule: Q01DX009 (ip), vehicle: Klucel (hydroxypropylcellulose) (HPC)
[12] = dose: 200.0 mg/kg/injection, schedule: Q01DX009 (ip), vehicle: Klucel (hydroxypropylcellulose) (HPC)
[13] = dose: 400.0 mg/kg/injection, schedule: Q01DX009 (ip), vehicle: Klucel (hydroxypropylcellulose) (HPC)
[14] = dose: 400.0 mg/kg/injection, schedule: Q04DX003 (ip), vehicle: saline with Tween-80

Measured: T/C

CCCCCCCCP(=O)(O)CCCCCCCC
inactive: dose: 25.0 mg/kg/injection, schedule: Q04DX003 (ip), vehicle: saline with Tween-80 96 % of control | dose: 50.0 mg/kg/injection, schedule: Q04DX003 (ip), vehicle: saline with Tween-80 87 % of control | [1] 91 % of control

O=C(CCCC(=O)NO)NO
inactive: dose: 100.0 mg/kg/injection, schedule: Q04DX002 (ip), vehicle: saline with Tween-80 113 % of control | [2] 100 % of control | dose: 200.0 mg/kg/injection, schedule: Q04DX002 (ip), vehicle: saline with Tween-80 100 % of control | [3] 97 % of control | dose: 400.0 mg/kg/injection, schedule: Q04DX002 (ip), vehicle: saline with Tween-80 97 % of control | [4] 113 % of control

CC(C)(NC(=O)C(F)(F)F)C(=O)O
inactive: dose: 100.0 mg/kg/injection, schedule: Q04DX003 (ip), vehicle: saline 100 % of control | dose: 200.0 mg/kg/injection, schedule: Q04DX003 (ip), vehicle: saline 87 % of control | dose: 400.0 mg/kg/injection, schedule: Q04DX003 (ip), vehicle: saline 95 % of control

O=C(C1=CCCC1)C1=CCCC1
inactive: dose: 50.0 mg/kg/injection, schedule: Q01DX001 (ip), vehicle: saline with Tween-80 99 % of control | [5] 105 % of control | [6] 99 % of control

Cc1ncc(C(O)c2ccc(Cl)cc2)n1Cc1ccccc1 (stereo not drawn)
inactive: [7] 100 % of control | [8] 94 % of control | [9] 104 % of control

Nc1cccc(CCc2nc(N)nc(N)c2-c2ccc(Cl)c(Cl)c2)c1
inactive: [5] 95 % of control | [6] 109 % of control | [10] 109 % of control

COc1ccc(NC(=O)Nc2cc(C)ccc2C)cc1
inactive: [11] 89 % of control | [7] 93 % of control | [12] 86 % of control | [8] 93 % of control | [13] 92 % of control | [9] 87 % of control

CNC(=S)N/N=C/c1ccc(N(C)CCC#N)cc1
inactive: [11] 96 % of control | [12] 93 % of control

CCOC(=O)C(O)c1ccc[nH]1 (stereo not drawn)
inactive: [5] 115 % of control | [1] 89 % of control | [6] 115 % of control | [10] 111 % of control | [14] 95 % of control

C(=N\OCc1ccccc1)/c1ccccn1
inactive: [11] 94 % of control | [7] 96 % of control | [12] 101 % of control | [8] 97 % of control | [13] 100 % of control | [9] 103 % of control

CC(=O)Nc1ccc(CCCCc2cccc(C(=N)N)c2)cc1
inactive: dose: 12.5 mg/kg/injection, schedule: Q01DX009 (ip), vehicle: saline 101 % of control | dose: 12.5 mg/kg/injection, schedule: Q04DX003 (ip), vehicle: Klucel (hydroxypropylcellulose) (HPC) 102 % of control | dose: 25.0 mg/kg/injection, schedule: Q01DX009 (ip), vehicle: saline 101 % of control | dose: 25.0 mg/kg/injection, schedule: Q04DX003 (ip), vehicle: Klucel (hydroxypropylcellulose) (HPC) 100 % of control | dose: 50.0 mg/kg/injection, schedule: Q01DX009 (ip), vehicle: saline 95 % of control | dose: 50.0 mg/kg/injection, schedule: Q04DX003 (ip), vehicle: Klucel (hydroxypropylcellulose) (HPC) 102 % of control

OCC(O)C(O)C(O)CO (stereo not drawn)
inactive: [2] 107 % of control | [3] 104 % of control | [4] 96 % of control

CSc1n[nH]c(=O)[nH]c1=S
inactive: dose: 100.0 mg/kg/injection, schedule: Q01DX001 (ip), vehicle: saline 96 % of control | dose: 200.0 mg/kg/injection, schedule: Q01DX001 (ip), vehicle: saline 101 % of control | dose: 400.0 mg/kg/injection, schedule: Q01DX001 (ip), vehicle: saline 95 % of control

COc1cc(C(=O)N2CCOC23CCN(Cc2ccccc2)CC3)cc(OC)c1OC
inactive: dose: 100.0 mg/kg/injection, schedule: Q01DX009 (ip), vehicle: saline with Tween-80 95 % of control | [1] 102 % of control | dose: 200.0 mg/kg/injection, schedule: Q01DX009 (ip), vehicle: saline with Tween-80 90 % of control | dose: 200.0 mg/kg/injection, schedule: Q04DX003 (ip), vehicle: saline with Tween-80 100 % of control | [14] 100 % of control

CC1=CC(=O)C(C(=O)CC(O)(C(F)(F)F)C(F)(F)F)C(=O)O1 (stereo not drawn)
inactive: dose: 12.5 mg/kg/injection, schedule: Q01DX009 (ip), vehicle: saline with Tween-80 92 % of control | dose: 25.0 mg/kg/injection, schedule: Q01DX009 (ip), vehicle: saline with Tween-80 103 % of control | dose: 50.0 mg/kg/injection, schedule: Q01DX009 (ip), vehicle: saline with Tween-80 88 % of control

CCCCOC(=O)c1ccc(OC(=O)Nc2ccc([N+](=O)[O-])cc2OC)cc1
inactive: dose: 50.0 mg/kg/injection, schedule: Q01DX001 (ip), vehicle: Klucel (hydroxypropylcellulose) (HPC) 93 % of control | dose: 50.0 mg/kg/injection, schedule: Q01DX009 (ip), vehicle: Klucel (hydroxypropylcellulose) (HPC) 96 % of control | dose: 50.0 mg/kg/injection, schedule: Q01DX009 (ip), vehicle: other 101 % of control | dose: 50.0 mg/kg/injection, schedule: Q04DX002 (ip), vehicle: Klucel (hydroxypropylcellulose) (HPC) 97 % of control | dose: 50.0 mg/kg/injection, schedule: Q04DX003 (ip), vehicle: other 98 % of control | dose: 100.0 mg/kg/injection, schedule: Q01DX001 (ip), vehicle: Klucel (hydroxypropylcellulose) (HPC) 93 % of control | [11] 96 % of control | dose: 100.0 mg/kg/injection, schedule: Q01DX009 (ip), vehicle: other 105 % of control | dose: 100.0 mg/kg/injection, schedule: Q04DX002 (ip), vehicle: Klucel (hydroxypropylcellulose) (HPC) 94 % of control | dose: 100.0 mg/kg/injection, schedule: Q04DX003 (ip), vehicle: other 109 % of control | dose: 200.0 mg/kg/injection, schedule: Q01DX001 (ip), vehicle: Klucel (hydroxypropylcellulose) (HPC) 92 % of control | [12] 122 % of control | dose: 200.0 mg/kg/injection, schedule: Q01DX009 (ip), vehicle: other 102 % of control | dose: 200.0 mg/kg/injection, schedule: Q04DX002 (ip), vehicle: Klucel (hydroxypropylcellulose) (HPC) 97 % of control | dose: 200.0 mg/kg/injection, schedule: Q04DX003 (ip), vehicle: other 101 % of control | dose: 400.0 mg/kg/injection, schedule: Q01DX001 (ip), vehicle: Klucel (hydroxypropylcellulose) (HPC) 101 % of control | dose: 400.0 mg/kg/injection, schedule: Q04DX002 (ip), vehicle: Klucel (hydroxypropylcellulose) (HPC) 100 % of control | dose: 400.0 mg/kg/injection, schedule: Q04DX003 (ip), vehicle: other 97 % of control
